Test results taken from patent publication US8524636B2 (Dow Global Technologies LLC, priority 2010, dated 2013).
Read-outs that look alike come from different tables or passages of the source.

How the values were obtained:
[1] = system: green algae (Selenastrum capricornutum); settings: cited from earlier work
[2] = system: Gloeocapsa sp. and Oscillatoria sp.; assay: Algal efficacy on dry paint film (Modified ASTM 5589), pool Gs + Os; assay type: cell-based
Method: (§1) A single biocide or blend of biocides was post added into white acrylic latex paint free of biocides to give a maximum total active ingredient/s concentration tested. This paint was then diluted with a biocide free acrylic latex paint to give targeted concentrations for the testing. Depending on the type of biocide blends tested, the total biocides concentrations varies from 400 to 3300 ppm. After biocides addition or dilution, each sample was hand mixed for at least a minute until uniformity was achieved. Each of the paint samples as well as a control sample (containing no biocide) were used to prepare films on black plastic-vinyl chloride/acetate copolymer panels (Leneta Company, Mahwah, N.J.) using a 0.0762 mm (3 mil) bird bar applicator. The panels were thoroughly dried for at least 2 days avoiding direct exposure to sunlight. Square discs (0.5 inch^2; 1.27 cm^2) were cut out from each panel and were used as the substrate for fungal and algal efficacy tests. This sample size allowed for an agar border when the sample disc was placed into the well of the test plate. Each sample was tested in duplicate.
(§2) The appropriate media (BOLD'S 3N for Chlorophytes, BG-11 for Cyanobacteria, and PDA for fungi) were used to support microbial growth. The test plates were maintained at room temp (25° C.-26° C.), in a cycled light-dark environment, for four weeks for algae. Plates for fungal challenge tests were maintained at 30° C. for four weeks. At the end of the incubation period the samples were scored for percent area covered by visible microbial growth.
Algal efficacy was tested as follows (Modified ASTM 5589).
ASTM 5589 is a standard accelerated test method for determining resistance of various coatings (including paints) to algal defacement. To accommodate for high-throughput screening, this method was scaled down from petri plates to 6-well plates. A single coupon was placed with a pair of sterile forceps at the center of the agar plug (on top) with the painted surface facing upwards. Algal inoculums were prepared by mixing equal concentrations (approximately 1×10^6 cfu/ml) and equal volumes (depending on number of samples to be inoculated) of like growing organisms.
In this synergy study, three pool of mixed algae were prepared as the test inoculum, Gloeocapsa sp. and Oscillatoria sp. a mix of cyanobacteria grown on BG-11 media; Chlorella sp., Chlorella kessleri, and Nostoc commune are unicellular chlorphytes that were mixed and grown on Bold media; Trentepohlia aurea, Tretepohlia odorata, and Calotrix parientina are filamentous algae that were mixed and grown on Bold media.
Each well that contained a tested coupon was inoculated with 400 μl of organism mixture (approximately 1×10^6 cfu/ml) making sure that the whole surface (paint film as well as the agar surrounding it) was evenly covered. The plates were incubated at room temp (25° C.-26° C.) with cyclic exposure to light (OTT-Lite model # OTL4012P, 40 Watt, 26 KLumen) and dark phases, for a period of four weeks. The total area covered was evaluated at the end of each week according to percent area covered in 5% increments.
(§3) The SI is calculated based on F. C. Kull et.
(§4) SI value of <1 in the formula indicates a synergism of the blended biocides exists.
(§5) NE=no end point at the concentration tested that will meet the percent inhibition criteria set in each SI calculation.

[3] = system: Aspergillus niger mixed with Penicillium funiculosum; assay: Fungal efficacy on dry paint film (Modified ASTM 5590), pool An + Pf; assay type: cell-based; settings: for % Inhibition, An + Pf: dry film, four weeks
Method: as §1, §2
(§6) Fungal efficacy was tested as follows (Modified ASTM 5590).
(§7) ASTM 5590 is a standard accelerated test method for determining resistance of various coatings (including paints) to fungal defacement. To accommodate for high-throughput screening, this method was scaled down from petri plates to 6-well plates. To set up the test, an agar plug was placed at the bottom of each well of the sterile 6-well plate. A single coupon was placed with a pair of sterile forceps at the center of the agar plug (on top) with the painted surface facing upwards. Fungal inoculums were prepared by mixing equal concentrations (approximately 1×10^6 cfu/ml) and equal volumes (depending on number of samples to be tested) of like growing organisms. For this synergy study, three pools of mixed fungi were prepared as the test inoculum. Cladosporium herbarum was mixed with Trichoderma viride, Aspergillus niger was mixed with Penicillium funiculosum and Alternaria alternata was mixed with Aureobasidium pullulans. Each well was inoculated with 400 microliter of organism mixture (approximately 1×10^6 cfu/ml) making sure that the whole surface (paint film as well as the agar surrounding it) was evenly covered. The plates were incubated at 30° C. in presence of moisture, for a period of four weeks. The total percent area covered was evaluated and recorded at the end of each week and recorded in increments of 5%.
as §3, §4, §5

[4] = system: Cladosporium herbarum mixed with Trichoderma viride; assay: Fungal efficacy on dry paint film (Modified ASTM 5590), pool TV + Ch; assay type: cell-based
Method: as §1, §2, §6
ASTM 5590 is a standard accelerated test method for determining resistance of various coatings (including paints) to fungal defacement. To accommodate for high-throughput screening, this method was scaled down from petri plates to 6-well plates. […] The total percent area covered was evaluated and recorded at the end of each week and recorded in increments of 5%.
(§8) The SI is calculated based on F. C. […]

[5] = system: Alternaria alternata mixed with Aureobasidium pullulans; assay: Fungal efficacy on dry paint film (Modified ASTM 5590), pool Aa + Ap; assay type: cell-based
Method: as §1, §2, §6
as §7, with “Each well was inoculated with 400 microliter of organism mixture (approximately 1×10^6 cfu/ml) making sure that the whole surface (paint film as well as the agar surrounding it) was evenly covered. The plates were incubated at 30° C. in presence of moisture, for a period of four weeks.” left out
as §8

[6] = Total conc 1500 ppm (synergy table)
[7] = Total conc 750 ppm (synergy table)
[8] = Conc. 750 ppm in paint, dry film, four weeks
[9] = Conc. 1500 ppm in paint, dry film, four weeks
[10] = Conc. 2500 ppm in paint, dry film, four weeks
[11] = Total conc 2500 ppm (synergy table)

Compound | EbC50 (median effective concentration for biomass) ([1]; 72 hr) [mg/L] | ErC50 (median effective concentration for growth rate) ([1]; 72 hr) [mg/L] | EbC50 (median effective concentration for biomass) ([1]; 7 day) [mg/L] | % Inhibition, Gs + Os [2, 6] [%] | % inhibition, AnPf [3, 7] [%] | % Inhibition, TV + Ch [4, 6] [%] | % inhibition, Aa + Ap [5, 7] [%] | % Inhibition, Gs + Os [2, 8] [%] | % Inhibition, Gs + Os [2, 9] [%] | % Inhibition, Gs + Os [2, 10] [%] | % Inhibition, An + Pf ([3]; Conc. 750 ppm in paint) [%] | % Inhibition, An + Pf ([3]; Conc. 1500 ppm in paint) [%] | % Inhibition, An + Pf ([3]; Conc. 2500 ppm in paint) [%] | % inhibition, AnPf [3, 11] [%] | % Inhibition, TV + Ch [4, 8] [%] | % Inhibition, TV + Ch [4, 10] [%] | % inhibition, Aa + Ap [5, 9] [%] | % inhibition, Aa + Ap [5, 10] [%] | % inhibition, Aa + Ap [5, 11] [%]
O=C(O)CNCP(=O)(O)O [Glyphosate, N-(phosphonomethyl)glycine] | 485 | 460 | 13.8 | – | – | – | – | – | – | – | – | – | – | – | – | – | – | – | –
CCCCNC(=O)OCC#CI [IPBC, 3-iodo-2-propynyl-butylcarbamate, reference compound] | – | – | – | 82.5 | 65 | 75 | 90 | – | – | – | – | – | – | – | – | – | – | – | –
Zinc Glyphosate | – | – | – | 72.5 | – | – | – | 15 | 72.5 | 90 | 20 | 27.5 | 30 | 30 | 50 | 90 | 47.5 | 70 | 70
